According to US20250215029A1 (Recludix Pharma, Inc., priority 2022, published 2025):
Where two headings read alike, the source gives them in different places.

What was measured:
[1] = target: T1, Recombinant STAT3 protein (STAT3 (G127-I722)) (Homo sapiens, UniProt P40763); assay: STAT3 Fluorescence Polarization (FP) Assay; format: binding; details: probe 5-FAM-GpYLPQTV-NH2 2 nM, 45-minute incubation
T1 construct: Recombinant STAT3 protein (STAT3 (G127-I722))
In short: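 Read-out is fluorescence polarization (mP) after 45 min at room temperature, with IC50 fitted by nonlinear regression against log compound concentration. Mixture: 25 nM STAT3 (G127-I722), 2 nM 5-FAM-GpYLPQTV-NH2 phosphopeptide, 10 mM HEPES pH 7.4 buffer, 1% DMSO.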

[2] = target: T2, Recombinant STAT6 protein (STAT6 (W123-T658)) (Homo sapiens, UniProt P42226); assay: STAT6 Fluorescence Polarization (FP) Assay; format: binding; details: 45-minute incubation
T2 construct: Recombinant STAT6 protein (STAT6 (W123-T658))
T2 sequence (P42226 123-658): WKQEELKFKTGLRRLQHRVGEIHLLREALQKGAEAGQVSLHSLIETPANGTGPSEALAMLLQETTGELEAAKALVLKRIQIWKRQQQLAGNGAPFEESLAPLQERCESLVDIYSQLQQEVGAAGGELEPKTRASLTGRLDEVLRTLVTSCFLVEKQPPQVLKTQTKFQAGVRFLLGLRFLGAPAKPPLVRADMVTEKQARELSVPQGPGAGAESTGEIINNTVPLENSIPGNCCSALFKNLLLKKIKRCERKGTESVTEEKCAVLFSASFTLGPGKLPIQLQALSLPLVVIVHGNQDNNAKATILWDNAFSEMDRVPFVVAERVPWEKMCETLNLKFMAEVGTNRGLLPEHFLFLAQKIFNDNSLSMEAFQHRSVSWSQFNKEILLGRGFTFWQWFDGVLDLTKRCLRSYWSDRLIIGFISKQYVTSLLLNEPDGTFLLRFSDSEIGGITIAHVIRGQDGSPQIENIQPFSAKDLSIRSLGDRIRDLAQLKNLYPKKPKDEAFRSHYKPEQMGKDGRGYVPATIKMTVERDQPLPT
In short: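 Recombinant STAT6 (W123-T658) at 250 nM mixed with 2 nM 5-FAM phosphotyrosine peptide probe in HEPES pH 7.4 buffer with DTT, 1% DMSO final, added to serially diluted compounds. FP (mP) read after 45 min at room temperature; IC50 by nonlinear regression vs log concentration.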

[3] = STAT3 (G127-I722) 25 nM, read-out: STAT3 (FP assay IC50 class)
[4] = STAT6 (W123-T658) 250 nM, probe 5-FAM-Ap[…]-NH2 2 nM, read-out: STAT6 (FP assay IC50 class)
[5] = STAT3 25 nM, read-out: STAT3 (FP assay IC50)
[6] = STAT6 250 nM, probe 5-FAM-Ap[…]-NH2 2 nM, read-out: STAT6 (FP assay IC50)

T1 sequence (P40763 127-722): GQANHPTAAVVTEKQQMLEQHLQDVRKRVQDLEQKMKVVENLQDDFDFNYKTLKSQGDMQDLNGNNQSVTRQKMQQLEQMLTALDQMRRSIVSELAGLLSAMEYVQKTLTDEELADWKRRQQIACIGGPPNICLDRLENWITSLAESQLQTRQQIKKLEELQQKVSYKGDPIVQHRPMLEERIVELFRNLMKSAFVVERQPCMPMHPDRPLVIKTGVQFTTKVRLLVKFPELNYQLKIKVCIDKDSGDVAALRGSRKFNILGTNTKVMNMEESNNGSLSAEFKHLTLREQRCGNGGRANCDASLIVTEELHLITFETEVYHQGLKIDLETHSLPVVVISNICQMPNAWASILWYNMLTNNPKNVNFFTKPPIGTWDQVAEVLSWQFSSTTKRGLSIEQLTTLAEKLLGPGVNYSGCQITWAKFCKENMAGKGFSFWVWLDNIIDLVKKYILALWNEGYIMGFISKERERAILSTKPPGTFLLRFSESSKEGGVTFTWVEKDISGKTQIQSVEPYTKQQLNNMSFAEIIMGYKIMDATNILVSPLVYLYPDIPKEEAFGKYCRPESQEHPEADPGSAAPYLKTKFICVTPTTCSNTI

Row | IC50 [1, 3] [nM] | IC50 [2, 4] [nM] | IC50 [1, 5] [nM] | IC50 [2, 6] [nM] | SMILES | IC50 ([2]; STAT6 250 nM, probe 5-FAM-ApYKPFQDLI-NH2 2 nM, read-out: STAT6 (FP assay IC50)) [nM]
1 | > 10000 | 300 to 3000 | – | – | CC1C[C@H]2CC[C@@H](C(=O)N3CC(c4cccnc4)C3)N2C(=O)[C@@H](NC(=O)c2cc3cc(C(F)(F)P(=O)(O)O)ccc3s2)C1 (stereo partly drawn) [Compound 759, (difluoro(2-(((3S,6S,9aR)-8-methyl-5-oxo-3-(3-(pyridin-3-yl)azetidine-1-carbonyl)octahydro-1H-pyrrolo[1,2-a]azepin-6-yl)carbamoyl)benzo [b]thiophen-5-yl)methyl) phosphonic acid] | –
2 | – | – | 1000 to 10000 | ≤ 300 | C[C@@H]1C[C@H](NC(=O)c2cc3cc(C(F)(F)P(=O)(O)O)ccc3s2)C(=O)N2[C@H](CC[C@H]2C(=O)N2CC[C@@H](c3ccccc3)C2)C[C@H]1O [Compound 100, (difluoro(2-(((3S,6S,8R,9R, 10aR)-9-hydroxy-8-methyl-5-oxo-3-((S)-3-phenylpyrrolidine-1-carbonyl)decahydropyrrolo [1,2-a]azocin-6-yl)carbamoyl)benzo[b]thiophen-5-yl)methyl) phosphonic acid] | –
3 | < 100 | 300 to 3000 | – | – | COC1(c2cccnc2)CN(C(=O)[C@@H]2CC[C@@H]3CCC[C@H](NC(=O)c4cc5cc(C(F)(F)P(=O)(O)O)ccc5s4)C(=O)N32)C1 [Compound 498, (difluoro(2-(((3S,6S,9aS)-3-(3-methoxy-3-(pyridin-3-yl)azetidine-1-carbonyl)-5-oxooctahydro-1H-pyrrolo[1,2-a]azepin-6-yl)carbamoyl)benzo[b]thiophen-5-yl)methyl)phosphonic acid] | –
4 | < 100 | 3000 to 30000 | – | – | COC[C@@H]1CCN1c1ncncc1C1CN(C(=O)[C@@H]2CC[C@@H]3CCC[C@H](NC(=O)c4cc5cc(CP(=O)(O)O)ccc5s4)C(=O)N32)C1 [Compound 675, ((2-(((3S,6S,9aS)-3-(3-(4-((S)-2-(methoxymethyl)azetidin-1-yl)pyrimidin-5-yl)azetidine-1-carbonyl)-5-oxooctahydro-1H-pyrrolo[1,2-a]azepin-6-yl)carbamoyl)benzo [b]thiophen-5-yl)methyl) phosphonic acid] | –
5 | 100 to 1000 | 3000 to 30000 | – | – | C/C1=C/[C@H]2CC[C@@H](C(=O)N3CC(c4cnccc4C)C3)N2C(=O)[C@@H](NC(=O)c2cc3cc(CP(=O)(O)O)ccc3s2)CC1 [Compound 644, ((2-(((3S,6S,10aR,Z)-9-methyl-3-(3-(4-methylpyridin-3-yl)azetidine-1-carbonyl)-5-oxo-1,2,3,5,6,7,8,10a-octahydropyrrolo[1,2-a]azocin-6-yl)carbamoyl)benzo [b]thiophen-5-yl)methyl) phosphonic acid] | –
6 | 1000 to 10000 | ≤ 300 | – | – | N#C[C@@H]1CN(C(=O)[C@@H]2CC[C@@H]3CCCC[C@H](NC(=O)c4cc5cc(C(F)P(=O)(O)O)ccc5s4)C(=O)N32)C[C@H]1c1ccccc1 (single isomer, unassigned) [Compound 224] | –
7 | 1000 to 10000 | 3000 to 30000 | – | – | O=C(N[C@H]1CCC[C@H]2CC[C@@H](C(=O)N3CCC(c4cccnc4)C3)N2C1=O)c1cc2cc(CP(=O)(O)O)ccc2s1 (stereo partly drawn) [Compound 508, ((2-(((3S,6S,9aS)-5-oxo-3-(3-(pyridin-3-yl)pyrrolidine-1-carbonyl)octahydro-1H-pyrrolo[1,2-a]azepin-6-yl)carbamoyl)benzo[b]thiophen-5-yl)methyl)phosphonic acid] | –
8 | 1000 to 10000 | 3000 to 30000 | – | – | O=C(N[C@H]1CCC[C@H]2CC[C@@H](C(=O)N[C@@H]3CC[C@H](O)C3)N2C1=O)c1cc2cc(C(F)P(=O)(O)O)ccc2s1 (stereo partly drawn) [Compound 531, (fluoro(2-(((3S,6S,9aS)-3-(((1R,3S)-3-hydroxycyclopentyl)carbamoyl)-5-oxooctahydro-1H-pyrrolo[1,2-a]azepin-6-yl)carbamoyl)benzo[b]thiophen-5-yl)methyl)phosphonic acid] | –
9 | – | – | 100 to 1000 | 3000 to 30000 | C[C@]1(NC(=O)c2cc3cc(C(F)(F)P(=O)(O)O)ccc3s2)CCCC[C@H]2CC[C@@H](C(=O)N3CC(C(=O)N4CCOCC4)C3)N2C1=O [Compound 40, (difluoro(2-(((3S,6S,10aS)-6-methyl-3-(3-(morpholine-4-carbonyl)azetidine-1-carbonyl)-5-oxodecahydropyrrolo [1,2-a]azocin-6-yl)carbamoyl)benzo[b]thiophen-5-yl)methyl) phosphonic acid] | –
10 | 1000 to 10000 | 3000 to 30000 | – | – | Cn1ccc(=O)c(C2CN(C(=O)[C@@H]3CC[C@@H]4CCC[C@H](NC(=O)c5cc6cc(CP(=O)(O)O)ccc6s5)C(=O)N43)C2)c1 [Compound 584, ((2-(((3S,6S,9aS)-3-(3-(1-methyl-4-oxo-1,4-dihydropyridin-3-yl)azetidine-1-carbonyl)-5-oxooctahydro-1H-pyrrolo[1,2-a]azepin-6-yl)carbamoyl)benzo[b]thiophen-5-yl)methyl)phosphonic acid] | –
11 | 1000 to 10000 | 3000 to 30000 | – | – | COc1cc(C)c(C2CN(C(=O)[C@@H]3CC[C@@H]4CCC[C@H](NC(=O)c5cc6cc(CP(=O)(O)O)ccc6s5)C(=O)N43)C2)cn1 [Compound 511, ((2-(((3S,6S,9aS)-3-(3-(6-methoxy-4-methylpyridin-3-yl)azetidine-1-carbonyl)-5-oxooctahydro-1H-pyrrolo[1,2-a]azepin-6-yl)carbamoyl)benzo[b]thiophen-5-yl)methyl)phosphonic acid] | –
12 | – | – | 100 to 1000 | ≤ 300 | O=C(N[C@H]1CCCC[C@H]2CC[C@@H](C(=O)N3CC4(CN(C(=O)Cc5ccccc5)C4)C3)N2C1=O)c1cc2cc(C(F)(F)P(=O)(O)O)ccc2s1 [Compound 42, (difluoro(2-(((3S,6S,10aS)-5-oxo-3-(6-(2-phenylacetyl)-2,6-diazaspiro[3.3]heptane-2-carbonyl)decahydropyrrolo [1,2-a]azocin-6-yl)carbamoyl)benzo[b]thiophen-5-yl)methyl) phosphonic acid] | –
13 | 1000 to 10000 | ≤ 300 | – | – | O=C(N[C@H]1CCCC[C@H]2CC[C@@H](C(=O)N3C[C@@H](c4ccccc4)CC34CC4)N2C1=O)c1cc2cc(C(F)(F)P(=O)(O)O)ccc2s1 (single isomer, unassigned) [Compound 889] | –
14 | 1000 to 10000 | ≤ 300 | – | – | O=C(N[C@H]1CCCC[C@H]2CC[C@@H](C(=O)N3C[C@@H](c4cccnc4)CC34CC4)N2C1=O)c1cc2cc([C@H](F)P(=O)(O)O)ccc2s1 (single isomer, unassigned) [Compound 908] | –
15 | 1000 to 10000 | 300 to 3000 | – | – | N#C[C@H]1[C@H](c2ccccc2)CN(C(=O)[C@@H]2CC[C@@H]3CCC[C@H](NC(=O)c4cc5cc(CP(=O)(O)O)ccc5s4)C(=O)N32)C12CC2 [Compound 922, ((2-(((3S,6S,9aS)-3-((6R,7S)-7-cyano-6-phenyl-4-azaspiro[2.4]heptane-4-carbonyl)-5-oxooctahydro-1H-pyrrolo[1,2-a]azepin-6-yl)carbamoyl)benzo [b]thiophen-5-yl)methyl) phosphonic acid] | –
16 | 100 to 1000 | 300 to 3000 | – | – | CC(F)(c1ccc2sc(C(=O)N[C@H]3CCCC[C@H]4CC[C@@H](C(=O)N5CCC(c6cccnc6)C5)N4C3=O)cc2c1)P(=O)(O)O (stereo partly drawn) [Compound 222, (1-fluoro-1-(2-(((3S,6S,10aS)-5-oxo-3-(3-(pyridin-3-yl)pyrrolidine-1-carbonyl)decahydropyrrolo[1,2-a]azocin-6-yl)carbamoyl)benzo[b]thiophen-5-yl)ethyl)phosphonic acid] | –
17 | 100 to 1000 | 3000 to 30000 | – | – | COc1c(Cl)cncc1C1CN(C(=O)[C@@H]2CC[C@@H]3CCC[C@H](NC(=O)c4cc5cc(C(F)P(=O)(O)O)ccc5s4)C(=O)N32)C1 (stereo partly drawn) [Compound 682, ((2-(((3S,6S,9aS)-3-(3-(5-chloro-4-methoxypyridin-3-yl)azetidine-1-carbonyl)-5-oxooctahydro-1H-pyrrolo[1,2-a]azepin-6-yl)carbamoyl)benzo [b]thiophen-5-yl)fluoromethyl) phosphonic acid] | –

Row | SMILES | IC50 [1, 3] [nM] | IC50 [2, 4] [nM] | IC50 [1, 5] [nM] | IC50 [2, 6] [nM] | IC50 ([2]; STAT6 250 nM, probe 5-FAM-ApYKPFQDLI-NH2 2 nM, read-out: STAT6 (FP assay IC50)) [nM]
18 | CC1CCC[C@H](NC(=O)c2cc3cc(C(F)(F)P(=O)(O)O)ccc3s2)C(=O)N2[C@@H]1CC[C@H]2C(=O)N1C[C@H](c2cc[nH]c(=O)c2)[C@@H](C#N)C1 (single isomer, unassigned) [Compound 104, ((2-(((3S,6S,10aR)-3-((3R,4S or 3S,4R)-3-cyano-4-(2-oxo-1,2-dihydropyridin-4-yl)pyrrolidine-1-carbonyl)-10-methyl-5-oxodecahydropyrrolo [1,2-a]azocin-6-yl)carbamoyl)benzo[b]thiophen-5-yl)difluoromethyl) phosphonic acid] | – | – | 100 to 1000 | – | 300 to 3000
